Measured values reported in the supplement of paper PMC11208160.

Assay: recombinant UMI read abundance after kanamycin selection (control-corrected) (log10(CPM+1)); higher = more efficient recombination; extreme values may be limits of the assay; sequences stand for … in AGTGCAGAGAAAATCGGCCAGTTTTCTCTGCCTGCAGTCCGCATGCCGTGGGACCCCTTGGGTTCTAACCTGTTGCCTAGATTTATGCAGCGGACTGCCTTTCTCCCAAAGTGATAAACCGG…AGGTTGGTTTCACT; site = the 11-nt donor
Method in brief: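 Pooled Escherichia coli screen of donor and donor-binding-loop pairs for the IS621 bridge recombinase. Each pair sits with a 12-nt UMI on a plasmid carrying a promoterless kanamycin gene. The library was co-electroporated with a target plasmid encoding a fixed target and T7-inducible recombinase, then plated with IPTG (0.07 mM) plus kanamycin, or unselected, each in two replicates. Recombinant UMIs were PCR-amplified across the donor–target junction and sequenced. Counts became CPM, averaged over replicates, scaled by control-derived factors and reported as log10(CPM+1).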
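Also: IS621 bridge recombinase in Escherichia coli cells against a fixed T5 target plasmid.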

| Sequence | recombinant UMI read abundance (log10) |
| --- | --- |
| CTTCTCTCATGGACCGGTTTTCCCGGTAATCCGTATTTGTA (site CTTCTCTCTTC) | 0.278 |
| CTTCTCTCATGGACCGGTTTTCCCGGTAATCCGTATTTGTA (site CTTCTCTCTTG) | 0.558 |
| CTTCTCTCATGGACCGGTTTTCCCGGTAATCCGTATTTGTA (site CTTCTCTCTTT) | 0.676 |
| CTTCTCTCATGGACCGGTTTTCCCGGTAATCCGTATTTGTA (site CTTCTGTCTTA) | 0.00544 |
| CTTCTCTCATGGACCGGTTTTCCCGGTAATCCGTATTTGTA (site CTTCTTTCTTA) | 0 |
| CTTCTCTCATGGACCGGTTTTCCCGGTAATCCGTATTTGTA (site CTTGTCTCTTA) | 0.00827 |
| CTTCTCTCATGGACCGGTTTTCCCGGTAATCCGTATTTGTA (site CTTTTCTCTTA) | 0 |
| CTTCTCTCATGGACCGGTTTTCCCGGTAATCCGTATTTGTA (site GTTCTCTCTTA) | 0.0236 |
| CTTCTCTCATGGACCGGTTTTCCCGGTAATCCGTATTTGTA (site TTTCTCTCTTA) | 0.396 |
| CTTCTCTCATGGACCGGTTTTCCCGGTAATCCGTATTTGTG (site CTTCTCTCTAA) | 0.0117 |
| CTTCTCTCATGGACCGGTTTTCCCGGTAATCCGTATTTGTG (site CTTCTCTCTCA) | 0.154 |
| CTTCTCTCATGGACCGGTTTTCCCGGTAATCCGTATTTGTG (site CTTCTCTCTGA) | 0 |
| CTTCTCTCATGGACCGGTTTTCCCGGTAATCCGTATTTGTG (site CTTCTCTCTTA) | 0 |
| CTTCTCTCATGGACCGGTTTTCCCGGTAATCCGTATTTGTT (site CTTCTCTCTAA) | 2.22 |
| CTTCTCTCATGGACCGGTTTTCCCGGTAATCCGTATTTGTT (site CTTCTCTCTCA) | 0.0142 |
| CTTCTCTCATGGACCGGTTTTCCCGGTAATCCGTATTTGTT (site CTTCTCTCTGA) | 0 |
| CTTCTCTCATGGACCGGTTTTCCCGGTAATCCGTATTTGTT (site CTTCTCTCTTA) | 0.757 |
| CTTCTGTCATGGACCGGTTTTCCCGGTAATCCGTATTTGTA (site CTTCTATCTTA) | 2.41 |
| CTTCTGTCATGGACCGGTTTTCCCGGTAATCCGTATTTGTA (site CTTCTCTCTTA) | 0.00482 |
| CTTCTGTCATGGACCGGTTTTCCCGGTAATCCGTATTTGTA (site CTTCTGTCTTA) | 2.01 |
| CTTCTGTCATGGACCGGTTTTCCCGGTAATCCGTATTTGTA (site CTTCTTTCTTA) | 0 |
| CTTCTTTCATGGACCGGTTTTCCCGGTAATCCGTATTTGAC (site CTTCTTTCTGT) | 0 |
| CTTCTTTCATGGACCGGTTTTCCCGGTAATCCGTATTTGTA (site CTTCTATCTTA) | 0.00989 |
| CTTCTTTCATGGACCGGTTTTCCCGGTAATCCGTATTTGTA (site CTTCTCTCTTA) | 0 |
| CTTCTTTCATGGACCGGTTTTCCCGGTAATCCGTATTTGTA (site CTTCTGTCTTA) | 0.00353 |

| Sequence | recombinant UMI read abundance (log10) |
| --- | --- |
| CTTCTTTCATGGACCGGTTTTCCCGGTAATCCGTATTTGTA (site CTTCTTTCTTA) | 0 |
| CTTGGACCATGGACCGGTTTTCCCGGTAATCCGTATTTGTT (site CTTGGACCTAA) | 0.00553 |
| CTTGGATCATGGACCGGTTTTCCCGGTAATCCGTATTTGAC (site CTAGTATCTGT) | 0 |
| CTTGGATCATGGACCGGTTTTCCCGGTAATCCGTATTTGAC (site CTTGGATCTGT) | 0 |
| CTTGGATCATGGACCGGTTTTCCCGGTAATCCGTATTTGCA (site CTTGGATCTTG) | 2.59 |
| CTTGGCCCATGGACCGGTTTTCCCGGTAATCCGTATTTGTA (site CTTGGCCCTTA) | 0.0132 |
| CTTGTATCATGGACCGGTTTTCCCGGTAATCCGTATTTGAT (site CTAGTATCTGT) | 0 |
| CTTGTATCATGGACCGGTTTTCCCGGTAATCCGTATTTGAT (site CTTGTATCTAT) | 1.29 |
| CTTGTCTCATGGACCGGTTTTCCCGGTAATCCGTATTTGAA (site CTTGTCTCTTT) | 1.85 |
| CTTGTGGCATGGACCGGTTTTCCCGGTAATCCGTATTTGGA (site CTTGTGGCTTC) | 0.306 |
| CTTGTGTCATGGACCGGTTTTCCCGGTAATCCGTATTTGAC (site CTAGTATCTGT) | 0 |
| CTTGTGTCATGGACCGGTTTTCCCGGTAATCCGTATTTGAC (site CTTGTGTCTGT) | 0.301 |
| CTTTAAACATGGACCGGTTTTCCCGGTAATCCGTATTTGTA (site CTTTAAACTTA) | 1.06 |
| CTTTACACATGGACCGGTTTTCCCGGTAATCCGTATTTGCT (site CTATACACTAG) | 2.27 |
| CTTTACACATGGACCGGTTTTCCCGGTAATCCGTATTTGCT (site CTCTACACTAG) | 1.2 |
| CTTTACACATGGACCGGTTTTCCCGGTAATCCGTATTTGCT (site CTGTACACTAG) | 1.59 |
| CTTTACACATGGACCGGTTTTCCCGGTAATCCGTATTTGCT (site CTTTACACTAG) | 1.81 |
| CTTTACACATGGACCGGTTTTCCCGGTAATCCGTATTTGGG (site CTTTACACTCC) | 0.147 |
| CTTTACGCATGGACCGGTTTTCCCGGTAATCCGTATTTGTT (site CTTTACGCTAA) | 0.6 |
| CTTTCGGCATGGACCGGTTTTCCCGGTAATCCGTATTTGTG (site CTTTCGGCTCA) | 0.003 |
| GAAAACGCATGGACCGGTTTTCCCGGTAATCCGTATTTGGA (site GAAAACGCTTC) | 1.02 |
| GAAACCTCATGGACCGGTTTTCCCGGTAATCCGTATTTGGG (site GAAACCTCTCC) | 0.698 |
| GAACGTGCATGGACCGGTTTTCCCGGTAATCCGTATTTGTC (site GAACGTGCTGA) | 2.1 |
| GAAGAGTCATGGACCGGTTTTCCCGGTAATCCGTATTTGTT (site GAAGAATCTAA) | 3.37 |
| GAAGAGTCATGGACCGGTTTTCCCGGTAATCCGTATTTGTT (site GAAGACTCTAA) | 0.941 |

| Sequence | recombinant UMI read abundance (log10) |
| --- | --- |
| GAAGAGTCATGGACCGGTTTTCCCGGTAATCCGTATTTGTT (site GAAGAGTCTAA) | 2.91 |
| GAAGAGTCATGGACCGGTTTTCCCGGTAATCCGTATTTGTT (site GAAGATTCTAA) | 0.417 |
| GAAGATTCATGGACCGGTTTTCCCGGTAATCCGTATTTGCT (site GAAGATTCTAA) | 0.178 |
| GAAGATTCATGGACCGGTTTTCCCGGTAATCCGTATTTGCT (site GAAGATTCTAC) | 0 |
| GAAGATTCATGGACCGGTTTTCCCGGTAATCCGTATTTGCT (site GAAGATTCTAG) | 2.54 |
| GAAGATTCATGGACCGGTTTTCCCGGTAATCCGTATTTGCT (site GAAGATTCTAT) | 0 |
| GAAGATTCATGGACCGGTTTTCCCGGTAATCCGTATTTGTC (site GAAGATTCTAA) | 0.564 |
| GAAGATTCATGGACCGGTTTTCCCGGTAATCCGTATTTGTC (site GAAGATTCTCA) | 0 |
| GAAGATTCATGGACCGGTTTTCCCGGTAATCCGTATTTGTC (site GAAGATTCTGA) | 2.29 |
| GAAGATTCATGGACCGGTTTTCCCGGTAATCCGTATTTGTC (site GAAGATTCTTA) | 0.965 |
| GAAGCATCATGGACCGGTTTTCCCGGTAATCCGTATTTGCA (site GAAGCATCTTG) | 2.67 |
| GAAGCGTCATGGACCGGTTTTCCCGGTAATCCGTATTTGTA (site GAAGCGTCTTA) | 2.88 |
| GAAGGGTCATGGACCGGTTTTCCCGGTAATCCGTATTTGTT (site GAAGGGTCTAA) | 2.74 |
| GAAGTAGCATGGACCGGTTTTCCCGGTAATCCGTATTTGGG (site GAAGTAGCTCC) | 0.618 |
| GAAGTCGCATGGACCGGTTTTCCCGGTAATCCGTATTTGCG (site GAAGTCGCTCG) | 0.562 |
| GAAGTCGCATGGACCGGTTTTCCCGGTAATCCGTATTTGCG (site GCAGTCGCTCG) | 0.0126 |
| GAAGTCGCATGGACCGGTTTTCCCGGTAATCCGTATTTGCG (site GGAGTCGCTCG) | 0.0249 |
| GAAGTCGCATGGACCGGTTTTCCCGGTAATCCGTATTTGCG (site GTAGTCGCTCG) | 0.023 |
| GAAGTTTCATGGACCGGTTTTCCCGGTAATCCGTATTTGTT (site GAAGATTCTAA) | 0 |
| GAAGTTTCATGGACCGGTTTTCCCGGTAATCCGTATTTGTT (site GAAGCTTCTAA) | 0.43 |
| GAAGTTTCATGGACCGGTTTTCCCGGTAATCCGTATTTGTT (site GAAGGTTCTAA) | 0 |
| GAAGTTTCATGGACCGGTTTTCCCGGTAATCCGTATTTGTT (site GAAGTTTCTAA) | 1.76 |
| GAATACTCATGGACCGGTTTTCCCGGTAATCCGTATTTGAT (site GAATACTCTAT) | 2.8 |
| GAATATTCATGGACCGGTTTTCCCGGTAATCCGTATTTGTT (site GAAAATTCTAA) | 0 |
| GAATATTCATGGACCGGTTTTCCCGGTAATCCGTATTTGTT (site GAACATTCTAA) | 0 |
